Experiment [1] concerns THP-1. Briefly: Antiinflammatory activity in human THP-1 monocytes assessed as increase in IL-10 production at 10 uM incubated for 24 hrs in the presence of JTE907 by ELISA coupled qRT-PCR analysis. The format is functional, cell-based. A general note: ELISA stands for enzyme-linked immunosorbent assay.
The subject of experiment [2] is THP-1. Briefly: Antiinflammatory against LPS-activated human THP-1 monocytes assessed as increase in IL-4 production at 10 uM incubated for 24 hrs in the presence of JTE907 by ELISA coupled qRT-PCR analysis. The experiment is classed as functional, cell-based.
The test system of experiment [3] is THP-1. The experiment is described as follows: Antiinflammatory against LPS-activated human THP-1 monocytes assessed as decrease in IFN-gamma production at 10 uM incubated for 24 hrs in the presence of JTE907 by ELISA coupled qRT-PCR analysis. The format is functional, cell-based.
Experiment [4] relates to THP-1. The experiment is described as follows: Antiinflammatory activity in PMA-differentiated human THP-1 macrophages assessed as reduction in IFN-gamma production at 10 uM incubated for 24 hrs by ELISA coupled qRT-PCR analysis relative to control. The experiment is classed as functional. Also noted: scale not given: the % may be the effect or the level left.
Experiment [5] has as its system THP-1. Briefly: Antiinflammatory activity against LPS-activated PMA-differentiated human THP-1 macrophages assessed as increase in IL-4 production at 10 uM incubated for 24 hrs by ELISA coupled qRT-PCR analysis. The experiment is classed as functional, cell-based.
For experiment [6], the system named is THP-1. Briefly: Antiinflammatory activity against LPS-activated PMA-differentiated human THP-1 macrophages assessed as decrease in TNF-alpha production at 10 uM incubated for 24 hrs by ELISA coupled qRT-PCR analysis relative to control. Also noted: scale not given: the % may be the effect or the level left. The experiment is classed as functional.
The test system of experiment [7] is THP-1. Briefly: Antiinflammatory activity in LPS-activated PMA-differentiated human THP-1 macrophages assessed as decrease in IL-1beta production at 10 uM incubated for 24 hrs in the presence of JTE907 by ELISA coupled qRT-PCR analysis. The format is functional, cell-based.
In experiment [8] the test system is THP-1. Briefly: Antiinflammatory activity in human THP-1 monocytes assessed as increase in IL-10 production at 10 uM incubated for 24 hrs in the presence of N-(adamantan-1-yl)-4-(pentylamino)-[1,1'-biphenyl]-3-carboxamide by ELISA coupled qRT-PCR analysis. The experiment is classed as functional, cell-based.
In experiment [9] the test system is THP-1. Briefly: Antiinflammatory activity in human THP-1 monocytes assessed as decrease in TNF-alpha production at 10 uM incubated for 24 hrs in the presence of N-(adamantan-1-yl)-4-(pentylamino)-[1,1'-biphenyl]-3-carboxamide by ELISA coupled qRT-PCR analysis. The experiment is classed as functional, cell-based.
The subject of experiment [10] is THP-1. Briefly: Antiinflammatory activity in PMA-differentiated human THP-1 monocytes assessed as decrease in IL-6 production at 10 uM incubated for 24 hrs in the presence of N-(adamantan-1-yl)-4-(pentylamino)-[1,1'-biphenyl]-3-carboxamide by ELISA coupled qRT-PCR analysis. The experiment is classed as functional, cell-based.
Experiment [11] relates to THP-1. Briefly: Antiinflammatory activity in PMA-differentiated human THP-1 monocytes assessed as decrease in IFN-gamma production at 10 uM incubated for 24 hrs in the presence of N-(adamantan-1-yl)-4-(pentylamino)-[1,1'-biphenyl]-3-carboxamide by ELISA coupled qRT-PCR analysis. The experiment is classed as functional, cell-based.
In experiment [12] the test system is THP-1. The experiment is described as follows: Antiinflammatory activity in PMA-differentiated human THP-1 monocytes assessed as decrease in TNF-alpha production at 10 uM incubated for 24 hrs in the presence of N-(adamantan-1-yl)-4-(pentylamino)-[1,1'-biphenyl]-3-carboxamide by ELISA coupled qRT-PCR analysis. The experiment is classed as functional, cell-based.

The subject of experiment [13] is THP-1. The experiment is described as follows: Antiinflammatory activity against LPS-activated PMA-differentiated human THP-1 monocytes assessed as decrease in TNF-alpha production at 10 uM incubated for 24 hrs in the presence of N-(adamantan-1-yl)-4-(pentylamino)-[1,1'-biphenyl]-3-carboxamide by ELISA coupled qRT-PCR analysis. The format is functional, cell-based.

Experiment [14] relates to THP-1. The experiment is described as follows: Antiinflammatory activity against LPS-activated PMA-differentiated human THP-1 macrophages assessed as decrease in IL-6 production at 1 to 10 uM incubated for 24 hrs by ELISA coupled qRT-PCR analysis relative to control. The format is functional. Details: scale not given: the % may be the effect or the level left. To be noted: dose 1-10 µM.

Experiment [15] addresses T1, Cannabinoid receptor 2 (Homo sapiens, UniProt P34972). Briefly: Displacement of [3H]-CP55940 from human CB2 receptor expressed in HEK293 cell membrane assessed as inhibition constant incubated for 90 mins by radioligand competition binding assay. The format is cell membranes. In general terms: Displacement assays read how much labelled ligand stays bound in the presence of the test substance.

The target in experiment [16] is T1, Cannabinoid receptor 2. Briefly: Agonist activity at human CB2 receptor expressed in CHO-K1 cells assessed as inhibition of NKH-477 induced cAMP production by measuring maximal efficacy incubated for 30 mins by luminescence based analysis relative to control. The format is functional, cell-based. To be noted: filed as agonist. (cAMP levels reflect the balance of adenylyl cyclase and phosphodiesterase activity.)

Experiment [17] relates to THP-1. The experiment is described as follows: Antiinflammatory activity in human THP-1 monocytes assessed as decrease in TNF-alpha production incubated for 24 hrs by ELISA coupled qRT-PCR analysis. The following applies: dose 1-10 µM. The format is functional, cell-based.
In experiment [18] the test system is THP-1. Briefly: Antiinflammatory activity in human THP-1 monocytes assessed as decrease in IL-6 production at 1 to 10 uM incubated for 24 hrs in the presence of JTE907 by ELISA coupled qRT-PCR analysis. To be noted: dose 1-10 µM. The experiment is classed as functional, cell-based.
Experiment [19] relates to THP-1. Briefly: Antiinflammatory activity in human THP-1 monocytes assessed as increase in IL-10 production at 1 to 10 uM incubated for 24 hrs in the presence of JTE907 by ELISA coupled qRT-PCR analysis. The experiment is classed as functional, cell-based. The following applies: dose 1-10 µM.
In experiment [20] the test system is THP-1. Briefly: Antiinflammatory activity in human THP-1 monocytes assessed as increase in IL-4 production at 1 to 10 uM incubated for 24 hrs in the presence of JTE907 by ELISA coupled qRT-PCR analysis. The experiment is classed as functional, cell-based. The following applies: dose 1-10 µM.
Experiment [21] deals with THP-1. The experiment is described as follows: Antiinflammatory against LPS-activated human THP-1 monocytes assessed as increase in IL-10 production at 1 to 10 uM incubated for 24 hrs in the presence of JTE907 by ELISA coupled qRT-PCR analysis. The following applies: dose 1-10 µM. The experiment is classed as functional, cell-based.
Experiment [22] concerns THP-1. Briefly: Antiinflammatory against LPS-activated human THP-1 monocytes assessed as decrease in TNF-alpha production at 1 to 10 uM incubated for 24 hrs in the presence of JTE907 by ELISA coupled qRT-PCR analysis. The format is functional, cell-based. To be noted: dose 1-10 µM.
Experiment [23] deals with THP-1. The experiment is described as follows: Antiinflammatory against LPS-activated human THP-1 monocytes assessed as decrease in IFN-gamma production at 1 to 10 uM incubated for 24 hrs in the presence of JTE907 by ELISA coupled qRT-PCR analysis. The experiment is classed as functional, cell-based. To be noted: dose 1-10 µM.
Experiment [24] has as its system THP-1. Briefly: Antiinflammatory activity in PMA-differentiated human THP-1 macrophages assessed as increase in IL-10 production at 1 to 10 uM incubated for 24 hrs by ELISA coupled qRT-PCR analysis. The format is functional, cell-based. To be noted: dose 1-10 µM.
Experiment [25] deals with THP-1. The experiment is described as follows: Antiinflammatory activity against LPS-activated PMA-differentiated human THP-1 macrophages assessed as decrease in TNF-alpha production at 1 to 10 uM incubated for 24 hrs by ELISA coupled qRT-PCR analysis relative to control. The following applies: dose 1-10 µM. Details: scale not given: the % may be the effect or the level left. The format is functional.

The subject of experiment [26] is THP-1. Briefly: Antiinflammatory activity against LPS-activated PMA-differentiated human THP-1 macrophages assessed as decrease in IFN-gamma production at 1 to 10 uM incubated for 24 hrs by ELISA coupled qRT-PCR analysis relative to control. The experiment is classed as functional. Details: scale not given: the % may be the effect or the level left. The following applies: dose 1-10 µM.

Experiment [27] has as its system THP-1. The experiment is described as follows: Antiinflammatory activity in PMA-differentiated human THP-1 macrophages assessed as increase in IL-10 production at 1 to 10 uM incubated for 24 hrs in the presence of JTE907 by ELISA coupled qRT-PCR analysis. The experiment is classed as functional, cell-based. To be noted: dose 1-10 µM.
Experiment [28] concerns THP-1. The experiment is described as follows: Antiinflammatory activity in LPS-activated PMA-differentiated human THP-1 macrophages assessed as increase in IL-4 production at 1 to 10 uM incubated for 24 hrs in the presence of JTE907 by ELISA coupled qRT-PCR analysis. The following applies: dose 1-10 µM. The format is functional, cell-based.

The source made the active and inactive calls. No cut-off for these calls is given here.

T1 sequence (P34972 whole entry): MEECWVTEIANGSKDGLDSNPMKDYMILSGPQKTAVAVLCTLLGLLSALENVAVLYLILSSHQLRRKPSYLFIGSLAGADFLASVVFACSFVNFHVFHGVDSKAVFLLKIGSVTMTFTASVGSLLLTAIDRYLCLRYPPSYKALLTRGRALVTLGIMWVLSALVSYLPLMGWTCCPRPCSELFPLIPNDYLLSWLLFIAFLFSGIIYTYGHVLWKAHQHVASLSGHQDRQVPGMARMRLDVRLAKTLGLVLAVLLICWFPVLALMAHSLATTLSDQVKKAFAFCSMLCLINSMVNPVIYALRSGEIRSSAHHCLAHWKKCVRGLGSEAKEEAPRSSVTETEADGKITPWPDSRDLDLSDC

`O=C(NC1CCCCC1)c1cn(CCN2CCOCC2)c2cc(Cl)ccc2c1=O`: the result in the experiment with THP-1 [1], in the experiment on THP-1 [2], in the experiment with THP-1 [3], in the experiment on THP-1 [7], with THP-1 [8] and in the experiment on THP-1 [9] was inactive. Besides, the result in the experiment with THP-1 [10], in the experiment with THP-1 [11], in the experiment with THP-1 [12] and in the experiment with THP-1 [13] was inactive. Moreover, the Activity was found to be 50% in the experiment with THP-1 [4] and 70% in the experiment with THP-1 [6]. Besides, the outcome in the experiment on THP-1 [5] was Active.

Broadly, the Ki is the equilibrium dissociation constant of an inhibitor or competing ligand from its target. A word on the Emax: it is the maximal effect, on the per cent scale that the assay sets. As to `CCCCCNc1ccccc1C(=O)NC12CC3CC(CC(C3)C1)C2`, the Activity in the experiment with THP-1 [14] was 70%; in the experiment on THP-1 [17] it was “Dose-Dependent Effect”; in the experiment on THP-1 [25], 70%; in the experiment on THP-1 [26] it was 70%. At Cannabinoid receptor 2 [15], the inhibitory constant (Ki) came to 55.7 nM. Further, the maximal response (Emax) at Cannabinoid receptor 2 [16] is 77.2%. In addition, the result in the experiment on THP-1 [18], in the experiment on THP-1 [19], with THP-1 [20], in the experiment with THP-1 [21], in the experiment with THP-1 [22] and in the experiment with THP-1 [23] was inactive. Also, the result with THP-1 [27] and with THP-1 [28] was inactive. In the experiment with THP-1 [24], the result was Active.
